Measurements published in US12065436B2, “Cardiac sarcomere inhibitors” (Cytokinetics, Inc., priority 2018, dated 2024).

Molecular target: bovine cardiac myofibrils (full-length cardiac myosin ATPase in the native sarcomere) (Bos taurus (Bovine), UniProt Q9BE39)
Assay: Skinned bovine cardiac myofibril ATPase assay (PK/LDH-coupled)
Assay type: biochemical
Settings: Ca2+ activating to 75% of maximal rate; for CDMF75 IC15: concentration giving 15% inhibition; for IC50: read-out: CDMF75 IC50
In short: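 Triton-skinned bovine left-ventricle myofibrils (1 mg/mL) in PM 12 buffer (12 mM PIPES, 2 mM MgCl2, pH 6.8) with 50 μM ATP, 0.6 mM EGTA and CaCl2 set for 50% or 75% activation. Steady-state ATPase inhibition followed by PK/LDH-coupled NADH oxidation at 340 nm.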

bovine cardiac myofibrils (full-length cardiac myosin ATPase in the native sarcomere), sequence (Q9BE39 whole entry): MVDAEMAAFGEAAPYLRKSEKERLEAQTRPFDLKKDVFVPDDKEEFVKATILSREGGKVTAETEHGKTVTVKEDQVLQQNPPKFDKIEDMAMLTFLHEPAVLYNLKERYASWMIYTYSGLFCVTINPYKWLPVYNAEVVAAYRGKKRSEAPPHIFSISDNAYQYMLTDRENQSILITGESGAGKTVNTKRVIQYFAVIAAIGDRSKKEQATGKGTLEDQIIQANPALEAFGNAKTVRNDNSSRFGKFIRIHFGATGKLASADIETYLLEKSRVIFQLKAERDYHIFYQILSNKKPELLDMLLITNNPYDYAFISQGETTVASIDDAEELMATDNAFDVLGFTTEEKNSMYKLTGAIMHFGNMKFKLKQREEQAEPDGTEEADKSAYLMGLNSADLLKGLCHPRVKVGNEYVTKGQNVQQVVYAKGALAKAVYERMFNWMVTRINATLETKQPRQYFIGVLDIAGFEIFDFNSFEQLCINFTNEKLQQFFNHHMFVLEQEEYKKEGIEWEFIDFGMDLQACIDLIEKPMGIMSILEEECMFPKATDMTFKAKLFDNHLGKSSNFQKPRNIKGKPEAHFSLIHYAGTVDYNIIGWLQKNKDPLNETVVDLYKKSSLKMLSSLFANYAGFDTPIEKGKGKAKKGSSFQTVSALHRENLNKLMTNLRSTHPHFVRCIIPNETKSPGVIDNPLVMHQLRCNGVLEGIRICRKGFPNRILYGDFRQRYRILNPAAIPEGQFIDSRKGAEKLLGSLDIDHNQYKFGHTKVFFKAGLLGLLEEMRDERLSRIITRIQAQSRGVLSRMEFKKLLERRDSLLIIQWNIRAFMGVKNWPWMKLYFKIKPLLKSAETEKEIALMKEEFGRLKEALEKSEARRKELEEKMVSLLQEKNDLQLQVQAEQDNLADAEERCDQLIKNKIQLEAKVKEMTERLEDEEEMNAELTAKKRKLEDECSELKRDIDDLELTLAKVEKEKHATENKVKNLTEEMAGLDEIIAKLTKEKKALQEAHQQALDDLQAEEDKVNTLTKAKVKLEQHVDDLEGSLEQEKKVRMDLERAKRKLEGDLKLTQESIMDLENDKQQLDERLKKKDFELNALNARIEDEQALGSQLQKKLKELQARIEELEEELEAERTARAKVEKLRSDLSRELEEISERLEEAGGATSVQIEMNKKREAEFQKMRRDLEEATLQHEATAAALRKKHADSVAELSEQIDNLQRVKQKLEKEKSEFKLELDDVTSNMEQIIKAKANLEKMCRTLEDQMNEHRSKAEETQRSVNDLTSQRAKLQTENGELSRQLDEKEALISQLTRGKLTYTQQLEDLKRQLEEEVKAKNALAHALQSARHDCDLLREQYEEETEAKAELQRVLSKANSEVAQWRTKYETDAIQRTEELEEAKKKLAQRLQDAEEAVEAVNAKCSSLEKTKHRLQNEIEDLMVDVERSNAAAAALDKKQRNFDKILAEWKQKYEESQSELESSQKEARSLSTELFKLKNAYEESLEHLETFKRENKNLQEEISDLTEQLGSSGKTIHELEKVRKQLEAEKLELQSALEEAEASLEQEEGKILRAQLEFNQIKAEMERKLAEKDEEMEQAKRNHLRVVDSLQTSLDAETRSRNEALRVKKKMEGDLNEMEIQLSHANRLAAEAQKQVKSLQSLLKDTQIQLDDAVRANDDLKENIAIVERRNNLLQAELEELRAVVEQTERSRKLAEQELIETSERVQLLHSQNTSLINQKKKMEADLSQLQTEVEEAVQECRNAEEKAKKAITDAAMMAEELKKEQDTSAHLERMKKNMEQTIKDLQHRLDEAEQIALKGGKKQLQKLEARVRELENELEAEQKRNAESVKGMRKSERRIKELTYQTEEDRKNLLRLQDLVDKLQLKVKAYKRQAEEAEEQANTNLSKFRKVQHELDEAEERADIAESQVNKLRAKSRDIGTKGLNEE
bovine cardiac myofibrils (full-length cardiac myosin ATPase in the native sarcomere), sequence (P85100 whole entry partner): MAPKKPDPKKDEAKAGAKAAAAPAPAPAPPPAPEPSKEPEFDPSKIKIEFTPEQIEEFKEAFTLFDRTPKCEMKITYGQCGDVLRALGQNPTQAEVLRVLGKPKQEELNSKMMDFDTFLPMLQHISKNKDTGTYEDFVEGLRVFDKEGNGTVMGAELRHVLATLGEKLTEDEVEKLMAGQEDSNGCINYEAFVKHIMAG
bovine cardiac myofibrils (full-length cardiac myosin ATPase in the native sarcomere), sequence (Q3SZE5 whole entry partner): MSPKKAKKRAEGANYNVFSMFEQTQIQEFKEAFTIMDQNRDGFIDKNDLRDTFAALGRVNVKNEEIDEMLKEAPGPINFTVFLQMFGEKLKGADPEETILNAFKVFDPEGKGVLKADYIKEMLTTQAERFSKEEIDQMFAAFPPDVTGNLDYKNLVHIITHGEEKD

Structure (SMILES) | CDMF75 IC15 [nM] | IC50 [nM]
Cc1cc(-c2ccc3c(c2)CC[C@H]3NC(=O)c2ccnn2C)cnn1 [Compound 384, (R)-1-methyl-N-(5-(6-methylpyridazin-4-yl)-2,3-dihydro-1H-inden-1-yl)-1H-pyrazole-5-carboxamide] | 39200 | > 39200
Cc1cc(C(=O)N[C@@H]2CCc3cc(-c4noc(C5CC5)n4)ccc32)ccn1 [Compound 389, (R)-N-(5-(5-cyclopropyl-1,2,4-oxadiazol-3-yl)-2,3-dihydro-1H-inden-1-yl)-2-methylisonicotinamide] | 600 | 1900
Cc1ncoc1C(=O)N[C@@H]1CCc2cc(-c3noc(C4CC4)n3)ccc21 [Compound 390, (R)-N-(5-(5-cyclopropyl-1,2,4-oxadiazol-3-yl)-2,3-dihydro-1H-inden-1-yl)-4-methyloxazole-5-carboxamide] | 400 | 1000
Cc1ncc(C(=O)N[C@@H]2CCc3cc(-c4noc(C(C)C)n4)ccc32)o1 [Compound 391, (R)-N-(5-(5-isopropyl-1,2,4-oxadiazol-3-yl)-2,3-dihydro-1H-inden-1-yl)-2-methyloxazole-5-carboxamide] | 1300 | 4600
Cc1cc(C(=O)N[C@@H]2CCc3cc(-c4noc(C(C)C)n4)ccc32)ccn1 [Compound 392, (R)-N-(5-(5-isopropyl-1,2,4-oxadiazol-3-yl)-2,3-dihydro-1H-inden-1-yl)-2-methylisonicotinamide] | 900 | 2700
Cc1ncoc1C(=O)N[C@@H]1CCc2cc(-c3noc(C(C)C)n3)ccc21 [Compound 393, (R)-N-(5-(5-isopropyl-1,2,4-oxadiazol-3-yl)-2,3-dihydro-1H-inden-1-yl)-4-methyloxazole-5-carboxamide] | 400 | 1200
CC(C)c1nc(-c2ccc3c(c2)CC[C@H]3NC(=O)c2cnn(C)c2)no1 [Compound 394, (R)-N-(5-(5-isopropyl-1,2,4-oxadiazol-3-yl)-2,3-dihydro-1H-inden-1-yl)-1-methyl-1H-pyrazole-4-carboxamide] | 1200 | 4100
CC(=O)N[C@@H]1CCc2cc(-c3noc(C(C)C)n3)ccc21 [Compound 395, (R)-N-(5-(5-isopropyl-1,2,4-oxadiazol-3-yl)-2,3-dihydro-1H-inden-1-yl)acetamide] | 3100 | 13500
Cc1cc(-c2ccc3c(c2)CC[C@H]3NC(=O)c2cnn(C)c2)no1 [Compound 402, (R)-1-methyl-N-(5-(5-methylisoxazol-3-yl)-2,3-dihydro-1H-inden-1-yl)-1H-pyrazole-4-carboxamide] | 1000 | 3800
Cc1cc(-c2ccc3c(c2)CC[C@H]3NC(=O)c2ccnn2C)no1 [Compound 403, (R)-1-methyl-N-(5-(5-methylisoxazol-3-yl)-2,3-dihydro-1H-inden-1-yl)-1H-pyrazole-5-carboxamide] | 400 | 1200
CCc1cc(-c2ccc3c(c2)CC[C@H]3NC(=O)c2ccnc(C)c2)no1 [Compound 404, (R)-N-(5-(5-ethylisoxazol-3-yl)-2,3-dihydro-1H-inden-1-yl)-2-methylisonicotinamide] | 400 | 1200
CCc1nc(-c2ccc3c(c2)CC[C@H]3NC(C)=O)no1 [Compound 405, (R)-N-(5-(5-ethyl-1,2,4-oxadiazol-3-yl)-2,3-dihydro-1H-inden-1-yl)acetamide] | 600 | 2300
CC(=O)N[C@@H]1CCc2cc(-c3noc(C4CCC4)n3)ccc21 [Compound 406, (R)-N-(5-(5-cyclobutyl-1,2,4-oxadiazol-3-yl)-2,3-dihydro-1H-inden-1-yl)acetamide] | 1900 | 7700
Cc1ncoc1C(=O)N[C@@H]1CCc2cc(-c3noc(C4CCC4)n3)ccc21 [Compound 409, (R)-N-(5-(5-cyclobutyl-1,2,4-oxadiazol-3-yl)-2,3-dihydro-1H-inden-1-yl)-4-methyloxazole-5-carboxamide] | 200 | 700

Now from value to compound:

CDMF75 IC15 [nM] | IC50 [nM] | Structure (SMILES)
500 | 1700 | CCc1nc(-c2ccc3c(c2)CC[C@H]3NC(=O)c2cnc(C)o2)no1 [Compound 385, (R)-N-(5-(5-ethyl-1,2,4-oxadiazol-3-yl)-2,3-dihydro-1H-inden-1-yl)-2-methyloxazole-5-carboxamide]
300 | 800 | CCc1nc(-c2ccc3c(c2)CC[C@H]3NC(=O)c2ocnc2C)no1 [Compound 386, (R)-N-(5-(5-ethyl-1,2,4-oxadiazol-3-yl)-2,3-dihydro-1H-inden-1-yl)-4-methyloxazole-5-carboxamide]
400 | 1600 | Cc1n[nH]cc1C(=O)N[C@@H]1CCc2cc(-c3noc(C(C)C)n3)ccc21 [Compound 396, (R)-N-(5-(5-isopropyl-1,2,4-oxadiazol-3-yl)-2,3-dihydro-1H-inden-1-yl)-3-methyl-1H-pyrazole-4-carboxamide]
900 | 3200 | COCc1nc(-c2ccc3c(c2)CC[C@H]3NC(=O)c2c[nH]nc2C)no1 [Compound 397, (R)-N-(5-(5-(methoxymethyl)-1,2,4-oxadiazol-3-yl)-2,3-dihydro-1H-inden-1-yl)-3-methyl-1H-pyrazole-4-carboxamide]
400 | 1200 | CCc1nc(-c2ccc3c(c2)CC[C@H]3NC(=O)c2c[nH]nc2C)no1 [Compound 398, (R)-N-(5-(5-ethyl-1,2,4-oxadiazol-3-yl)-2,3-dihydro-1H-inden-1-yl)-3-methyl-1H-pyrazole-4-carboxamide]
300 | 1000 | Cc1n[nH]cc1C(=O)N[C@@H]1CCc2cc(-c3noc(C4CCC4)n3)ccc21 [Compound 399, (R)-N-(5-(5-cyclobutyl-1,2,4-oxadiazol-3-yl)-2,3-dihydro-1H-inden-1-yl)-3-methyl-1H-pyrazole-4-carboxamide]
800 | 2800 | Cc1nc(-c2ccc3c(c2)CC[C@H]3NC(=O)c2c[nH]nc2C)no1 [Compound 400, (R)-3-methyl-N-(5-(5-methyl-1,2,4-oxadiazol-3-yl)-2,3-dihydro-1H-inden-1-yl)-1H-pyrazole-4-carboxamide]
900 | 3000 | [2H]C([2H])([2H])c1nc(-c2ccc3c(c2)CC[C@H]3NC(=O)c2c[nH]nc2C)no1 [Compound 401, (R)-3-methyl-N-(5-(5-(methyl-d3)-1,2,4-oxadiazol-3-yl)-2,3-dihydro-1H-inden-1-yl)-1H-pyrazole-4-carboxamide]
3200 | 13800 | CC(=O)N[C@@H]1CCc2cc(-c3noc(C)n3)ccc21 [Compound 407, (R)-N-(5-(5-methyl-1,2,4-oxadiazol-3-yl)-2,3-dihydro-1H-inden-1-yl)acetamide]
2800 | 12800 | [2H]C([2H])([2H])c1nc(-c2ccc3c(c2)CC[C@H]3NC(C)=O)no1 [Compound 408, (R)-N-(5-(5-(methyl-d3)-1,2,4-oxadiazol-3-yl)-2,3-dihydro-1H-inden-1-yl)acetamide]
